The target in this assay is GluA1o-γ8 (Homo sapiens (Human), UniProt P42261+Q8WXS5). Put plainly: Calcium flux assay (FLIPR), inhibition of TARP γ8 dependent AMPA receptor activity. To be noted: HEK293 cells stably expressing GRIA1o-CACNG8 fusion construct; calcium flux following 15 μM glutamate; negative log of IC50 in molar. Format: cell-based. The text has this: This assay was used to test compounds for their ability to inhibit TARP γ8 dependent AMPA receptor activity. The AMPA receptor is a non-selective cation channel activated by glutamate. Ionotropic glutamate receptors normally desensitize too rapidly to allow detectable calcium influx in a FLIPR assay (Strange et al. (2006). “Functional characterisation of homomeric ionotropic glutamate receptors GluR1-GluR6 in a fluorescence-based high throughput screening assay.” Comb Chem High Throughput Screen 9(2): 147-158). But, this desensitization is incomplete, and a substantial steady-state current remains in the sustained presence of glutamate (Cho et al. (2007). “Two families of TARP isoforms that have distinct effects on the kinetic properties of AMPA receptors and synaptic currents.” Neuron 55(6): 890-904).
An in vitro assay was used to determine the potency of test compounds as inhibitors of the glutamate response of the channel formed by GluA1o-γ8. To ensure a 1:1 stoichiometry of GluA1o and γ8 subunits in the expressed channel, a fusion of the cDNAs for GRIA1o and CACNG8 was used. Following Shi et al (2009) “The stoichiometry of AMPA receptors and TARPs varies by neuronal cell type.” Neuron 62(5): 633-640), the C-terminus of the cDNA for GRIA1o was fused to the N-terminus of the cDNA for γ8. The linker sequence was QQQQQQQQQQEFAT. Channels expressed with this construct appear to have similar properties to channels formed by co-expression of GRIA1o with an excess of CACNG8 (Shi et al. 2009). A clonal cell line in HEK293 cells stably expressing this construct, with a geneticin selection marker, was generated for use in this assay.
Cell expressing the GRIA1o-CACNG8 fusion construct were grown in a monolayer in 96- or 384-well microtiter plates. They were washed with assay buffer (135 mM NaCl, 4 mM KCl, 3 mM CaCl2, 1 mM MgCl2, 5 mM glucose, 10 mM HEPES, pH 7.4, 300 mOs) using a Biotek EL405 plate washer. The cells were then loaded with a calcium-sensitive dye (Calcium-5 or Calcium-6, Molecular Devices) and the test compounds at a range of concentrations. Calcium flux following the addition of 15 μM glutamate was monitored using a Molecular Devices FLIPR Tetra.
The fluorescence in each well was normalized to the fluorescence of negative and positive control wells. The negative control wells had no added compounds, and the positive control wells had been incubated with 10 μM CP465022 (a non-subtype-selective AMPA receptor antagonist) (Lazzaro et al. (2002). “Functional characterization of CP-465,022, a selective, noncompetitive AMPA receptor antagonist.” Neuropharmacology 42(2): 143-153). The responses to glutamate as functions of the test compound concentrations were fitted to a four-parameter logistic function. The fitted parameter corresponding to the midpoint was taken to be the potency of inhibition of the compound. The data in Table 4 below illustrates the observed potency for the compounds described herein. pIC50 refers to the negative log of the IC50 in molar.
On the technique in general: Calcium assays in cells follow changes in intracellular calcium, usually with a dye or a luminescent sensor.

Chain of GluA1o-γ8 (P42261 other isoform, or with tags, fused parts or gaps): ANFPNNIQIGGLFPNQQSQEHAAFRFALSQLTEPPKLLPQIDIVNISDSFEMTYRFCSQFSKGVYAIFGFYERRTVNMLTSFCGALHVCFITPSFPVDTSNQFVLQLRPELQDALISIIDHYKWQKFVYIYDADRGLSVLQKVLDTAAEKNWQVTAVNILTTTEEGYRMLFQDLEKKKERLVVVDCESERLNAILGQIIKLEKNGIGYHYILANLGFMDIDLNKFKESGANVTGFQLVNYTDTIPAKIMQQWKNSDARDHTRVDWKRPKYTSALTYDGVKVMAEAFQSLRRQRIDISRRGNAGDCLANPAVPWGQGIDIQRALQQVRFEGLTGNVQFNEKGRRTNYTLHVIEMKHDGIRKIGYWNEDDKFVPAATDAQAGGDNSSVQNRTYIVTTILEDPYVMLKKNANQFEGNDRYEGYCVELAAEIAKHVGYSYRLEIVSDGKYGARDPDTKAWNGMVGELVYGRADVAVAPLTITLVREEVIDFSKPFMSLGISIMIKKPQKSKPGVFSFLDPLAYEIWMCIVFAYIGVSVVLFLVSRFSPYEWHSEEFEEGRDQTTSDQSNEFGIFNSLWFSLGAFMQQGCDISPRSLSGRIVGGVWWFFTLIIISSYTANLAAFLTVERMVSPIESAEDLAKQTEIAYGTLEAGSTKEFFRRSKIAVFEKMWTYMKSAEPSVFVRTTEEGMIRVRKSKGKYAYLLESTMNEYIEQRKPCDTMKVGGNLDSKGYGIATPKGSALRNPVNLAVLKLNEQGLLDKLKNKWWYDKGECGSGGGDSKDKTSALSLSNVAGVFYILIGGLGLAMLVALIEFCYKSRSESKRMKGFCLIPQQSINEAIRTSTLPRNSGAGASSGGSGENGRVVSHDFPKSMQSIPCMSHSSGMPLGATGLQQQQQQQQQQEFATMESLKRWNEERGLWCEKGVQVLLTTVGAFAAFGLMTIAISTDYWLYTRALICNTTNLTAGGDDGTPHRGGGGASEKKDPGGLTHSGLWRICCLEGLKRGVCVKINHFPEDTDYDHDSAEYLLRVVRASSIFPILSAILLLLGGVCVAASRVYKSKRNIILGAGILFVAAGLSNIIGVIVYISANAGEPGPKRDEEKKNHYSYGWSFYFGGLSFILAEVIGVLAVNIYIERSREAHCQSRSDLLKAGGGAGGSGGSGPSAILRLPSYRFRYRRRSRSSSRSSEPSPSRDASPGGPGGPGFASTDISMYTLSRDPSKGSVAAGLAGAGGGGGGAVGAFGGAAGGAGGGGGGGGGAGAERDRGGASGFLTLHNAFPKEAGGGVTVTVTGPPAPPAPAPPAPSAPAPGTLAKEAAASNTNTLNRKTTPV

Turning to `O=C1Cc2cc(-c3c(C(F)(F)F)ccn4nc(C(F)(F)F)nc34)cc(Cl)c2N1` [Example 21, 5-(2,7-Bis(trifluoromethyl)-[1,2,4]triazolo[1,5-a]pyridin-8-yl)-7-chloroindolin-2-one], the pIC50 (commonly the negative decadic logarithm of the IC50, by convention in mol/L) worked out at 9.5.
Same read-out and setting: in the case of `COc1ccn2nc(C(F)(F)F)nc2c1-c1cc(C)c2[nH]ncc2c1` [Example 29, 7-Methoxy-8-(7-methyl-1H-indazol-5-yl)-2-(trifluoromethyl)-[1,2,4]triazolo[1,5-a]pyridine] it was 7.6; in that of `Cc1nc(C2CC2)c(-c2cc(Cl)c3[nH]ncc3c2)c2nc(C(F)(F)F)cn12` [Example 79], 8.9.
Still for that read-out and setting: in the case of `O=C1Cc2cc(-c3c(C(F)F)ccn4nc(C(F)(F)F)nc34)cc(Cl)c2N1` [Example 25, 7-Chloro-5-(7-(difluoromethyl)-2-(trifluoromethyl)-[1,2,4]triazolo[1,5-a]pyridin-8-yl)indolin-2-one] it was 9.2; in that of `Cc1ccn2nc(C(C)C)nc2c1-c1cc(C)c2[nH]ncc2c1` [Example 40, 2-Isopropyl-7-methyl-8-(7-methyl-1H-indazol-5-yl)-[1,2,4]triazolo[1,5-a]pyridine], 6.9.
Regarding `Fc1ccc(-c2ccn3nc(C(F)(F)F)nc3c2-c2ccc3[nH]nc(F)c3c2)cc1` [Example 45, 8-(3-Fluoro-1H-indazol-5-yl)-7-(4-fluorophenyl)-2-(trifluoromethyl)-[1,2,4]triazolo[1,5-a]pyridine], the pIC50 was determined as 7.6.
As to `O=C1Cc2cc(-c3c(C(F)(F)F)ncn4cc(C5CC5)nc34)cc(Cl)c2N1` [Example 69, 7-Chloro-5-[2-cyclopropyl-7-(trifluoromethyl)imidazo[1,2-c]pyrimidin-8-yl]indolin-2-one], the pIC50 worked out at 9.5.
Same read-out and setting: as for `Cc1ccn2cc(C(F)(F)F)nc2c1-c1ccc2[nH]ncc2c1` [Example 50, 8-(1H-Indazol-5-yl)-7-methyl-2-(trifluoromethyl)imidazo[1,2-a]pyridine], the figure is 7.2; as for `Cc1cc(-c2c(C(F)(F)F)ccn3nc(C(F)(F)F)nc23)cc2c1NC(=O)C2` [Example 22, 5-(2,7-Bis(trifluoromethyl)-[1,2,4]triazolo[1,5-a]pyridin-8-yl)-7-methylindolin-2-one], 9.1.
The same measure, in the same setting: as for `Cc1cc(-c2c(N3CC(F)C3)ccn3nc(C(F)(F)F)nc23)cc2cn[nH]c12` [Example 8, 7-(3-Fluoroazetidin-1-yl)-8-(7-methyl-1H-indazol-5-yl)-2-(trifluoromethyl)-[1,2,4]triazolo[1,5-a]pyridine], the figure is 8.6; as for `Cc1ccn2nc(C(F)(F)F)nc2c1-c1cc(C)c2[nH]ncc2c1` [Example 27, 7-Methyl-8-(7-methyl-1H-indazol-5-yl)-2-(trifluoromethyl)-[1,2,4]triazolo[1,5-a]pyridine], 8.4.
Turning to `COc1ccn2cc(C(F)(F)F)nc2c1-c1cc(C)c2c(c1)CC(=O)N2` [Example 58, 5-[7-Methoxy-2-(trifluoromethyl)imidazo[1,2-a]pyridin-8-yl]-7-methyl-indolin-2-one], the pIC50 is listed as 7.8.
Same read-out and setting: in the case of `Cc1cc(-c2c(-c3ccc(F)cc3)ccn3nc(C4CC4)nc23)cc2cn[nH]c12` [Example 48, 2-Cyclopropyl-7-(4-fluorophenyl)-8-(7-methyl-1H-indazol-5-yl)-[1,2,4]triazolo[1,5-a]pyridine] it was 10.1; in that of `Cc1cc(-c2c(C(F)(F)F)ncn3cc(C(F)(F)F)nc23)cc2cn[nH]c12` [Example 63, 8-(7-Methyl-1H-indazol-5-yl)-2,7-bis(trifluoromethyl)imidazo[1,2-c]pyrimidine], 8.9; in that of `O=c1[nH]c2ccc(-c3c(C(F)(F)F)ccn4nc(C(F)(F)F)nc34)cc2s1` [Example 3, 6-(2,7-Bis(trifluoromethyl)-[1,2,4]triazolo[1,5-a]pyridin-8-yl)benzo[d]thiazol-2(3H)-one], 8.1.
Regarding `CCc1nc2c(-c3cc(Cl)c4[nH]ncc4c3)c(C(F)(F)F)ccn2n1` [Example 34, 8-(7-Chloro-1H-indazol-5-yl)-2-ethyl-7-(trifluoromethyl)-[1,2,4]triazolo[1,5-a]pyridine], the pIC50 is on record as 9.4.
The same measure, in the same setting: in the case of `Fc1c(C2CC2)nc2c(-c3cc(Cl)c4[nH]ncc4c3)c(C(F)(F)F)ncn12` [Example 82, 8-(7-Chloro-1H-indazol-5-yl)-2-cyclopropyl-3-fluoro-7-(trifluoromethyl)imidazo[1,2-c]pyrimidine] it was 9.5; in that of `Cc1cn2ccc(C(F)(F)F)c(-c3cc(C)c4[nH]ncc4c3)c2n1` [Example 94, 2-Methyl-8-(7-methyl-1H-indazol-5-yl)-7-(trifluoromethyl)imidazo[1,2-a]pyridine], 8.1.
On to `Cc1cc(-c2c(C(F)(F)F)ncn3cc(C(F)F)nc23)cc2cn[nH]c12` [Example 15, 2-(Difluoromethyl)-8-(7-methyl-1H-indazol-5-yl)-7-(trifluoromethyl)imidazo[1,2-c]pyrimidine], for which the IC50 (commonly the concentration that gives 50% inhibition) was 2 nM.
Take `Cc1cc(-c2c(Cl)ccn3cc(C(F)(F)F)nc23)cc2cn[nH]c12` [Example 60, 7-Chloro-8-(7-methyl-1H-indazol-5-yl)-2-(trifluoromethyl)imidazo[1,2-a]pyridine]: the pIC50 is recorded as 9.0.
In the case of `Cc1cc(-c2c(C(F)(F)F)ccn3nc(C(F)F)nc23)cc2cn[nH]c12` [Example 16, 8-(7-Methyl-1H-indazol-5-yl)-2-(difluoromethyl)-7-(trifluoromethyl)-[1,2,4]triazolo[1,5-a]pyridine], the pIC50 was found to be 9.0.
On to `CCc1ncn2cc(C(F)(F)F)nc2c1-c1cc(Cl)c2[nH]ncc2c1` [Example 73, 8-(7-Chloro-1H-indazol-5-yl)-7-ethyl-2-(trifluoromethyl)imidazo[1,2-c]pyrimidine], for which the pIC50 turned out to be 9.1.
For the molecule `Fc1ccc(-c2ccn3cc(C(F)(F)F)nc3c2-c2ccc3[nH]ncc3c2)cc1` [Example 12, 5-(7-(4-Fluorophenyl)-2-(trifluoromethyl)imidazo[1,2-a]pyridin-8-yl)-1H-indazole], the IC50 is 3.16 nM.
With `FC(F)c1nc2c(-c3cc(Cl)c4[nH]ncc4c3)c(C(F)(F)F)ccn2n1` [Example 1, 8-(7-Chloro-1H-indazol-5-yl)-2-(difluoromethyl)-7-(trifluoromethyl)-[1,2,4]triazolo[1,5-a]pyridine], the pIC50 is recorded as 9.5.
Still for that read-out and setting: as for `Cc1ccn2cc(-c3ccccc3)nc2c1-c1cc(C)c2[nH]ncc2c1` [Example 56, 7-Methyl-8-(7-methyl-1H-indazol-5-yl)-2-phenyl-imidazo[1,2-a]pyridine], the figure is 7.9; as for `Cc1cc(-c2c(N3CCC3)ccn3nc(C(F)(F)F)nc23)cc2cn[nH]c12` [Example 7, 7-(Azetidin-1-yl)-8-(7-methyl-1H-indazol-5-yl)-2-(trifluoromethyl)-[1,2,4]triazolo[1,5-a]pyridine], 9.5; as for `Fc1ccc(-c2ccn3nc(C(F)(F)F)nc3c2-c2cc(Cl)c3[nH]ncc3c2)cc1` [Example 43, 7-(4-Fluorophenyl)-8-(7-chloro-1H-indazol-5-yl)-2-(trifluoromethyl)-[1,2,4]triazolo[1,5-a]pyridine], 11.0.
`Cc1cc(-c2c(C(F)F)ccn3nc(C(F)(F)F)nc23)cc2cn[nH]c12` [Example 24, 8-(7-Methyl-1H-indazol-5-yl)-7-(difluoromethyl)-2-(trifluoromethyl)-[1,2,4]triazolo[1,5-a]pyridine]: the pIC50 stood at 9.2.
As to `Cc1nc(C2CC2)c(-c2cc(Cl)c3[nH]ncc3c2)c2nc(C(F)F)cn12` [Example 80, 8-(7-Chloro-1H-indazol-5-yl)-7-cyclopropyl-2-(difluoromethyl)-5-methyl-imidazo[1,2-c]pyrimidine], the pIC50 is recorded as 9.2.
Consider `Cc1cc(-c2c(C(F)F)ccn3nc(C(F)(F)F)nc23)cc2c1NC(=O)C2` [Example 26, 7-Methyl-5-(7-(difluoromethyl)-2-(trifluoromethyl)-[1,2,4]triazolo[1,5-a]pyridin-8-yl)indolin-2-one], for which the pIC50 came to 9.0.

The values are drawn from patent publication US10155769B2, “Fused azaheterocyclic compounds and their use as AMPA receptor modulators” (Janssen Pharmaceutica NV, priority 2016, dated 2018).
